According to US20150272939A1, “Identification of Small Molecule Inhibitors of Jumonji AT-Rich Interactive Domain 1A (JARID1A) and 1B (JARID1B) Histone Demethylase” (Yale University, priority 2012, published 2015):
Values joined by “and” are separate entries in the source; they are usually repeats but may differ in a detail not shown here. Equal values may be shown once. Where a name gives a salt, the structure may show the parent alone. Read-outs that look alike come from different tables or passages of the source.

Assays:
[1] = AlphaScreen counterscreen against bio-H3K4me2 peptide in the absence of enzyme (artifact signal); conditions: for Artifact signal: effect of the compound when it is incubated with bio-H3K4me2 peptide: counterscreen, no enzyme; for Artifact Signal (percent): effect of the compound when incubated with bio-H3K4me2 peptide (counterscreen, no enzyme);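 as to all read-outs here: counterscreen run without enzyme against bio-H3K4me2 peptide to remove false positive hits from the JARID1 demethylase AlphaScreen screen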
JARID1B = target: T1, JARID1B (Homo sapiens, UniProt Q9UGL1); assay: FLAG-JARID1B histone demethylase assay with AlphaScreen detection (HTS and dose response); format: biochemical; conditions: for inhibition at 20 µM: read-out: Inhibitory effect (percent); for Validation result of HTS active: effect of the compound in the JARID1B AlphaScreen demethylase assay: total signal before subtraction of artifact signal;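 as to Assay Signal (percent): compound tested at 20 µM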;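 as to Assay − Artifact Signal (percent): compound tested at 20 µM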;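 as to all read-outs here: FLAG-tagged JARID1B at 4 nM acting on a biotinylated H3K4me3 peptide, demethylation read by AlphaScreen luminescence, with hits checked against bio-H3K4me2 without enzyme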
T1 construct: The FLAG tagged full length JARID1B enzyme was expressed in Sf21 insect cells using FLAG-JARID1B baculoviruses; FLAG (N); made in house; host or cells: Sf21 insect cells (baculovirus)

[2] = high-throughput screen, compound 20 μM, standard demethylase conditions (10 μM α-KG, 50 μM Fe (II))
[3] = assay signal minus artifact signal
[4] = validation of HTS actives, effect of compound in JARID1B AlphaScreen assay
[5] = high-throughput screen, compound 20 μM, IDs marked *: additional hits under reaction condition with 1 mM α-KG

T1 sequence (Q9UGL1 whole entry): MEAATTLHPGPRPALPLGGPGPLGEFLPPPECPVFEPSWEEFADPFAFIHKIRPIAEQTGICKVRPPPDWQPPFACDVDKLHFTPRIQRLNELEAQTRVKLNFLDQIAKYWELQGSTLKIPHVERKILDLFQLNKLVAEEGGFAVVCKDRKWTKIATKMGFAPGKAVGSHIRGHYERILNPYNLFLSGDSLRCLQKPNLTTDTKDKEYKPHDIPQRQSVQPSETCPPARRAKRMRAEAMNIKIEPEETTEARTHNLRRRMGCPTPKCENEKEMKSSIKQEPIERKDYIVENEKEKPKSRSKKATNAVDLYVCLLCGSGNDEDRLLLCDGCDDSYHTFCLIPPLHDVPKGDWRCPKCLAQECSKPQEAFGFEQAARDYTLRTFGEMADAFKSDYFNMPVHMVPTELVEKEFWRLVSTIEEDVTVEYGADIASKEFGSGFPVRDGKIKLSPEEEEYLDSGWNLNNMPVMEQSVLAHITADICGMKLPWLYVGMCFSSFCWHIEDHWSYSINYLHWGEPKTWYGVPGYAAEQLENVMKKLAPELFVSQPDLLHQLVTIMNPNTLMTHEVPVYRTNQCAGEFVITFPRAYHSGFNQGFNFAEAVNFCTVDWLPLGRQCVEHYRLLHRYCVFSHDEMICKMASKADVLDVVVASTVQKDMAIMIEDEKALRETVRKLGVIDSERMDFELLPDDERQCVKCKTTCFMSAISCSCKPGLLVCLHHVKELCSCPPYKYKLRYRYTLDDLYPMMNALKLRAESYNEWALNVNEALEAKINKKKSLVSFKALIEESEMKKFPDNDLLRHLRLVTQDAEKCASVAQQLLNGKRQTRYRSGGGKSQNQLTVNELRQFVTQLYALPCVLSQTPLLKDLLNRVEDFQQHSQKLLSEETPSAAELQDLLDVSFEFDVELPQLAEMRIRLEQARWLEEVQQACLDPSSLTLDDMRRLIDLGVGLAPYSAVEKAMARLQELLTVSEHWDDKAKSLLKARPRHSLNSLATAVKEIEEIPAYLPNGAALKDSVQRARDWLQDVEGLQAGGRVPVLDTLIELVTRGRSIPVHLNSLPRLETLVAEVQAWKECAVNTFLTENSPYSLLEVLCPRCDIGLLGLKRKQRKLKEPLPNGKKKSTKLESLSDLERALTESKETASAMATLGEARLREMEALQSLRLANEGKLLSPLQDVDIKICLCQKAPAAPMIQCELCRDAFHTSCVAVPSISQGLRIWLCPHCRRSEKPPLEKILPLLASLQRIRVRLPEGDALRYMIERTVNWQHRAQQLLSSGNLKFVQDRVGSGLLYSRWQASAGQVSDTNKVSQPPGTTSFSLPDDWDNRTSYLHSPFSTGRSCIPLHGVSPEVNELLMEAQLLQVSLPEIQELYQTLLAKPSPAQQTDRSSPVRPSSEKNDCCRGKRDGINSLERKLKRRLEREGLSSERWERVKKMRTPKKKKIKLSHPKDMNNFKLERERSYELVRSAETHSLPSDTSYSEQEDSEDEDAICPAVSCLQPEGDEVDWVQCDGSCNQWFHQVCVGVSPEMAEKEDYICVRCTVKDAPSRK

Molecule	Artifact signal: effect of the compound when it is incubated with bio-H3K4me2 peptide [1]	inhibition at 20 µM (JARID1B; [2]) [%]	Validation result of HTS active: effect of the compound in the JARID1B AlphaScreen demethylase assay (JARID1B; validation of HTS actives)	Artifact Signal (percent) [1]	Assay − Artifact Signal (percent) (JARID1B; [3]) [%]	Assay Signal (percent) (JARID1B; [4])	also measured
COc1cccc2c1C(=O)c1c(O)c3c(c(O)c1C2=O)C[C@@](O)(C(=O)CO)C[C@@H]3O[C@H]1C[C@H](N)[C@H](O)[C@H](C)O1.Cl (stereo in doubt) [YU039629, DOXORUBICIN HYDROCHLORIDE, reference compound]	3.92	80.3	8.94	–	–	–	–
CC(C)(C#N)O[C@@H]1O[C@H](CO)[C@@H](O)[C@H](O)[C@H]1O [YU155312, LINAMARIN, reference compound]	–	60.3	–	−6.55%	99.23	92.68%	–
O=C(O[C@@H]1Cc2c(O)cc(O)cc2O[C@@H]1c1ccc(O)c(O)c1)c1cc(O)c(O)c(O)c1 [YU153085, EPICATECHIN MONOGALLATE, reference compound]	–	–	–	85.87%	8.72	94.59%	–
NC(=O)NO [YU033863, HYDROXYUREA, reference compound]	–	–	–	−8.00%	21.20	13.20%	Inhibitory effect (percent) (JARID1B; [5]): 43.49%
Cc1ccc(C(=O)Nc2nnc(-c3ccncc3)s2)o1 [YU148889]	–	44.6	–	6.66%	9.49	16.16%	–
Cc1c2c(=O)n(-c3nc4ccccc4s3)[nH]c2cc(=O)n1CCN1CCOCC1 [YU172087]	–	56.4	–	−6.77%	21.21	14.44%	–
C#CCCCCCCCCCCCC(O)CC(O)COC(C)=O (stereo not drawn) [YU155369, AVOCADYNE ACETATE, reference compound]	–	45.1	–	−0.21%	45.03	44.82%	–
C=CCN(CC=C)C(=S)Nc1sc(C)c(C)c1C(=O)OC [YU153003]	–	65.6	–	6.76%	16.80	23.56%	–
COC1=CC(=O)C(O)=CC1=CC=Cc1ccccc1 (single isomer, unassigned) [YU155007, OBTUSAQUINONE, reference compound]	–	48.7	–	7.90%	43.75	51.64%	–
CN(C)CCCn1cc(C2=C(c3c[nH]c4ccccc34)C(=O)NC2=O)c2ccccc21 [YU154851, GF 109203X, reference compound]	5.46	40.7	5.76	–	–	–	–
N#CC(=Cc1ccc(N2CCCCC2)o1)c1ccc([N+](=O)[O-])cc1 (single isomer, unassigned) [YU152765]	–	42	–	2.40%	9.56	11.96%	–
NNC(=O)c1ccncc1 [YU033872, ISONIAZID, reference compound]	–	54.5	–	−6.34%	51.63	45.10%	–
Fc1ccccc1-c1nc2ncccc2o1 [YU172071]	−1.99	37.3	3.80	–	–	–	–
O=[N+]([O-])c1cc(O)c(O)c([N+](=O)[O-])c1 [YU034463, 3,5-DINITROCATECHOL, reference compound]	–	–	–	11.72%	27.05	38.78%	Inhibitory effect (percent) (JARID1B; [2]): 49.87%
Cc1ccc(NC(=O)CC2SC3=NCCCN3C2=O)c(C)c1 (stereo not drawn) [YU152183]	1.46	39.4	6.95	–	–	–	–
COc1cccc(O)c1O [YU155465, 3-METHOXYCATECHOL, reference compound]	–	56.5	–	7.97%	48.87	56.84%	–
O=C1NC(=O)C(c2ccc(Cl)cc2)N1 (stereo not drawn) [YU145089]	−1.01	78.3	4.23	–	–	–	–
O=C(NC1=NC(=O)C(F)(C(F)(F)F)S1)NC1CCCCC1 (stereo not drawn) [YU153281]	–	55.3	–	1.95%	23.51	25.46%	–

Molecule	Artifact signal: effect of the compound when it is incubated with bio-H3K4me2 peptide [1]	inhibition at 20 µM (JARID1B; [2]) [%]	Validation result of HTS active: effect of the compound in the JARID1B AlphaScreen demethylase assay (JARID1B; validation of HTS actives)	Artifact Signal (percent) [1]	Assay − Artifact Signal (percent) (JARID1B; [3]) [%]	Assay Signal (percent) (JARID1B; [4])	also measured
O=c1c(O)c(-c2ccc(O)c(O)c2)oc2cc(O)cc(O)c12 [YU154882, QUERCETIN, reference compound]	–	86	–	78.83% and 68.48%	–	100.88% and 78.65%	Inhibitory effect (percent) (JARID1B; [2]): 93.51%
S=C(Nc1cccc(Cl)c1Cl)Nn1cnnc1 [YU149002]	–	37.9	–	3.30%	12.28	15.58%	–
Cc1cc2c(C(C)C)c(O)c(O)c(C=O)c2c(O)c1-c1c(C)cc2c(C(C)C)c(O)c(O)c(C=O)c2c1O [YU034280, GOSSYPOL-ACETIC ACID COMPLEX, reference compound]	64.46	78.2	54.61	–	–	–	–
Oc1cc(O)c2c(c1)O[C@H](c1cc(O)c(O)c(O)c1)[C@H](O)C2 [YU155087, EPIGALLOCATECHIN, reference compound]	–	55.5	–	24.76%	19.74	44.50%	–
CCC1=C[C@H]2CN(C1)Cc1c([nH]c3ccccc13)[C@@](C(=O)OC)(c1cc3c(cc1OC)N(C)[C@H]1[C@@](O)(C(=O)OC)[C@H](OC(C)=O)[C@]4(CC)C=CC[N@]5CC[C@]31[C@@H]54)C2.O=C(O)C(O)C(O)C(=O)O [YU221030, V[…], reference compound]	–	–	–	18.13%	–	–	Assay Signal (percent) (JARID1B): 38.77%; Assay − Artifact Signal (percent) (JARID1B): 20.64%; inhibition at 20 µM (JARID1B): 42.2%
c1cncc(-c2nn3c(Cn4cnc5ccccc54)nnc3s2)c1 [YU154091]	–	40	–	5.50%	24.37	29.87%	–
Cc1noc2c1C(c1ccc(O)c(O)c1)C1=C(CC(C)(C)CC1=O)N2 (stereo not drawn) [YU185530]	–	46.5	–	1.72%	36.51	38.23%	–
CCN(CC)CCOc1ccc(/C(=C(\Cl)c2ccccc2)c2ccccc2)cc1 [YU033752, CLOMIPHENE CITRATE, reference compound]	–	47	–	0.86%	15.81	16.67%	–
Cc1ccc(NC(c2cccnc2)c2ccc3cccnc3c2O)cc1C (stereo not drawn) [YU172173]	37.31	40	44.79	–	–	–	–
Clc1cccc(N2CCN(Cc3ccc4ccccc4c3)CC2)c1 [YU105195]	5.28	38.9	8.75	–	–	–	–
Cn1cnc([N+](=O)[O-])c1Sc1[nH]cnc2ncnc1-2 [YU033698, AZATHIOPRINE, reference compound]	5.31	88.8	10.40	–	–	–	–
Cc1ccc([N+](=O)[O-])cc1N(CC(=O)Nc1ccc(Cl)c(C(F)(F)F)c1)S(C)(=O)=O [YU121632]	−1.84	59.2	2.95	–	–	–	–
CALCEIN [YU034124, reference compound]	–	–	–	−3.21%	36.96	33.76%	Inhibitory effect (percent) (JARID1B; [2]): 60.48%
O=C1c2ccccc2C(=O)c2c(NCCc3ccc(O)cc3)ccc(NCCc3ccc(O)cc3)c21 [YU019467, BML-266, reference compound]	–	–	–	55.18%	20.91	76.09%	inhibition at 20 µM (JARID1B; [5]): 42.1%
CCOc1c(O)ccc(C=O)c1[N+](=O)[O-] [YU145037]	−1.09	66.1	−4.02	–	–	–	–
Cc1cc(-c2ccc(NC(=O)CCC(=O)O)c(C)c2)ccc1NC(=O)CCC(=O)O [YU104987]	3.17	55.2	7.41	–	–	–	–
O=C([O-])c1ccccc1-c1c2cc(Br)c(=O)cc-2oc2[c]([Hg][OH])c([O-])c(Br)cc12 [YU034068, MERBROMIN, reference compound]	−1.81	–	3.43	–	–	–	Inhibitory effect (percent) (JARID1B; [2]): 99.27%
